These results are taken from patent US9555038B2, “Heterocycle-substituted tetracyclic compounds and methods of use thereof for the treatment of viral diseases” (Merck Sharp & Dohme Corp., priority 2013, dated 2017).

In one experiment the test system is HCV replicon 1A. Kind of experiment: Cell-based HCV Replicon Assay A, replicon 1A. The gist of the method: (§1)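 Replicon cells seeded at 2000 cells/well with compound, 10 serial dilutions starting at 333.3 nM to 1.667 nM, 0.5% DMSO, 5% FBS, harvested on day 3. Replicon RNA measured by multiplex TaqMan RT-PCR with cyclophilin as endogenous control, quantified from standard curves of Ct vs log ng RNA.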
For orientation: A replicon is a self-replicating genome or part of one, used to study replication in cells.

Another experiment relates to HCV replicon 2B. The experiment is described as follows: Cell-based HCV Replicon Assay A, replicon 2B. The gist of the method:
as §1

The next experiment relates to HCV replicon 1B. Kind of experiment: Cell-based HCV Replicon Assay B, replicon 1B. The gist of the method: (§2)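 Replicon cells seeded in 5% FBS; compounds added 24 h later, then 3 days' incubation. Replicon RNA quantified by real-time RT-PCR with genotype-specific primers/probes (NS5B amplicon for 1b). EC50 = concentration raising CT by 1 over projected baseline.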
The test system of another experiment is HCV replicon 1AY93H. Kind of experiment: Cell-based HCV Replicon Assay A, replicon 1AY93H. The gist of the method: as §1
The subject of a further experiment is HCV replicon 1AQ30D. Kind of experiment: Cell-based HCV Replicon Assay B, replicon 1AQ30D. The gist of the method: as §2
[1] abbreviates: read-out: 1A Y93H IC50, replicon 1AY93H.
[2] abbreviates: Hepatitis C virus, read-out: 1A Q30D IC50 (nM), replicon 1AQ30D.
Setting [3] is: Hepatitis C virus, read-out: 1A Y93H IC50 (nM), replicon 1AY93H.
The mark [4] stands for this setting: read-out: 1A Q30D IC50, replicon 1AQ30D.
The mark [5] stands for this setting: Hepatitis C virus, read-out: 2B IC50 (nM), replicon 2B.

Read-outs that look alike come from different tables or passages of the source.

Regarding `COC(=O)N[C@H](C(=O)N1CCC[C@H]1c1ncc(-c2cc(F)c3c(c2)OC(c2cnc(C4CCOCC4)s2)n2c-3cc3cc(-c4cnc([C@@H]5CCCN5C(=O)[C@@H](NC(=O)OC)C(C)C)[nH]4)ccc32)[nH]1)C(C)C` (single isomer, unassigned) [Compound 531], the IC50 was determined as 2.5 pM with HCV replicon 1A (Hepatitis C virus); 0.056 nM with HCV replicon 2B (read-out: 2B IC50, replicon 2B); 3.8 pM in the experiment with HCV replicon 1B (Hepatitis C virus); 0.022 nM with HCV replicon 1AY93H (setting [1]); 0.328 nM in the experiment with HCV replicon 1AQ30D (setting [2]).
Take `COC(=O)N[C@H](C(=O)N1CCC[C@H]1c1ncc(-c2cc(F)c3c(c2)OC(c2cnc(Nc4ccc(F)cc4)s2)n2c-3cc3cc(-c4cnc([C@@H]5CCCN5C(=O)[C@@H](NC(=O)OC)C(C)C)[nH]4)ccc32)[nH]1)C(C)C` (single isomer, unassigned) [Compound 534]: the IC50 came out at 2.4 pM with HCV replicon 1A (Hepatitis C virus); 0.03 nM in the experiment on HCV replicon 2B (read-out: 2B IC50, replicon 2B); 3 pM in the experiment with HCV replicon 1B (Hepatitis C virus); 0.094 nM with HCV replicon 1AY93H (setting [3]); 0.267 nM with HCV replicon 1AQ30D (setting [2]).
As for `COC(=O)N[C@H](C(=O)N1CCC[C@H]1c1ncc(-c2cc(F)c3c(c2)OC(c2cnc(Nc4ccc(F)cc4)s2)n2c-3cc3cc(-c4cnc([C@@H]5CCCN5C(=O)[C@@H](NC(=O)OC)C(C)C)[nH]4)ccc32)[nH]1)C(C)C` (single isomer, unassigned) [Compound 535], the IC50 in the experiment on HCV replicon 1A was 3.1 pM; in the experiment with HCV replicon 2B (read-out: 2B IC50, replicon 2B), 0.012 nM; in the experiment with HCV replicon 1B, 3.2 pM; with HCV replicon 1AY93H (setting [1]), 0.084 nM; in the experiment with HCV replicon 1AQ30D (setting [4]), 0.172 nM.
As for `COC(=O)NC(C(=O)N1CCC[C@H]1c1ncc(-c2ccc3c(c2)cc2n3C(c3cnc(CC(C)C)s3)Oc3cc(-c4cnc([C@@H]5CCCN5C(=O)[C@@H](NC(=O)OC)C(C)C)[nH]4)cc(F)c3-2)[nH]1)C1CCOC(C)(C)C1` (single isomer, unassigned) [Compound 544], the IC50 in the experiment with HCV replicon 1A was 3.1 pM; in the experiment with HCV replicon 2B (read-out: 2B IC50, replicon 2B), 0.006 nM; in the experiment on HCV replicon 1B (Hepatitis C virus) it was 3.6 pM; with HCV replicon 1AY93H (setting [1]), 0.005 nM; in the experiment with HCV replicon 1AQ30D (setting [4]), 0.051 nM.
Regarding `COC(=O)NC(C(=O)N1CCC[C@H]1c1ncc(-c2ccc3c(c2)cc2n3C(c3cnc(CC(C)C)s3)Oc3cc(-c4cnc([C@@H]5CCCN5C(=O)[C@@H](NC(=O)OC)C(C)C)[nH]4)cc(F)c3-2)[nH]1)C1CCOC(C)(C)C1` (single isomer, unassigned) [Compound 545], the IC50 in the experiment with HCV replicon 1A worked out at 2.6 pM; with HCV replicon 2B (read-out: 2B IC50, replicon 2B) it was 0.006 nM; in the experiment on HCV replicon 1B it was 2.8 pM; in the experiment on HCV replicon 1AY93H (setting [1]) it was 0.004 nM; in the experiment on HCV replicon 1AQ30D (setting [4]), 0.015 nM.
Regarding `COC(=O)NC(C(=O)N1CCC[C@H]1c1ncc(-c2ccc3c(c2)cc2n3C(c3cnc(CC(C)C)s3)Oc3cc(-c4cnc([C@@H]5CCCN5C(=O)[C@@H](NC(=O)OC)C(C)C)[nH]4)cc(F)c3-2)[nH]1)C1C[C@@H](C)O[C@@H](C)C1` (single isomer, unassigned) [Compound 547], the IC50 is 2.8 pM in the experiment with HCV replicon 1A; 0.006 nM with HCV replicon 2B (read-out: 2B IC50, replicon 2B); 1.8 pM in the experiment on HCV replicon 1B (Hepatitis C virus); 0.005 nM in the experiment with HCV replicon 1AY93H (setting [1]); 0.028 nM in the experiment on HCV replicon 1AQ30D (setting [2]).
For the molecule `CCCc1ncc(C2Oc3cc(-c4cnc([C@@H]5CCCN5C(=O)[C@@H](NC(=O)OC)C(C)C)[nH]4)cc(F)c3-c3cc4cc(-c5cnc([C@@H]6CCCN6C(=O)[C@@H](NC(=O)OC)C(C)C)[nH]5)ccc4n32)s1` (some centres unmarked) [Compound 15], the IC50 was determined as 2.9 pM in the experiment with HCV replicon 1A (Hepatitis C virus); 0.025 nM in the experiment on HCV replicon 2B (read-out: 2B IC50, replicon 2B); 3 pM in the experiment with HCV replicon 1B; 0.0059 nM in the experiment on HCV replicon 1AY93H (setting [1]); 0.118 nM in the experiment on HCV replicon 1AQ30D (setting [2]).
`COC(=O)N[C@H](C(=O)N1CCC[C@H]1c1nc(-c2cc(F)c3c(c2)OC(c2cnc(-c4cnccn4)s2)n2c-3cc3cc(-c4cnc([C@@H]5CCCN5C(=O)[C@@H](NC(=O)OC)C(C)C)[nH]4)ccc32)c[nH]1)C(C)C` (some centres unmarked) [Compound 424]: the IC50 in the experiment with HCV replicon 1A (Hepatitis C virus) came out at 1.9 pM; in the experiment on HCV replicon 2B (setting [5]), 0.003 nM; in the experiment on HCV replicon 1B (Hepatitis C virus), 694 pM; with HCV replicon 1AY93H (setting [3]), 0.0554 nM; with HCV replicon 1AQ30D (setting [2]), 0.058 nM.
In the case of `COC(=O)NC(C(=O)N1CCC[C@H]1c1ncc(-c2ccc3c(c2)cc2n3C(c3cnc(CC(C)(C)C)s3)Oc3cc(-c4cnc([C@@H]5CCCN5C(=O)[C@@H](NC(=O)OC)C(C)C)[nH]4)cc(F)c3-2)[nH]1)C1CCOC(C)(C)C1` (some centres unmarked) [Compound 443], the IC50 came to 3.1 pM with HCV replicon 1A (Hepatitis C virus); 0.006 nM with HCV replicon 2B (setting [5]); 3.1 pM with HCV replicon 1B (Hepatitis C virus); 0.008 nM in the experiment with HCV replicon 1AY93H (setting [3]); 0.028 nM in the experiment with HCV replicon 1AQ30D (setting [2]).
Take `COC(=O)N[C@H](C(=O)N1CCC[C@H]1c1ncc(-c2cc(F)c3c(c2)OC(c2cnc(C4CCCCC4)s2)n2c-3cc3cc(-c4cnc([C@@H]5CCCN5C(=O)[C@@H](NC(=O)OC)C(C)C)[nH]4)ccc32)[nH]1)C(C)C` (some centres unmarked) [Compound 527]: the IC50 in the experiment on HCV replicon 1A (Hepatitis C virus) came to 2.4 pM; with HCV replicon 2B (read-out: 2B IC50, replicon 2B) it was 0.014 nM; with HCV replicon 1B (Hepatitis C virus) it was 2.9 pM; with HCV replicon 1AY93H (setting [1]), 0.005 nM; in the experiment on HCV replicon 1AQ30D (setting [2]) it was 0.065 nM.

The IC50 is the concentration that gives 50% inhibition.
